US20240360178A1, “MACROCYCLIC IMMUNOMODULATORS” (Bristol-Myers Squibb Company, priority 2021, published 2024)
Starred links: 1 amine or outer side, 2 acyl side, 3 side chain; linkers in the order of their positions; H or OH if unused. Positions of bridges follow the written chain, without caps; N, C: chain ends. Non-standard residues stand in square brackets, D forms with d. Residues, ends and D or L forms follow the SMILES beside them. *: point of attachment. Phe(4-COOH) = N[C@@H](Cc1ccc(C(=O)O)cc1)C(=O)O; Bip = N[C@@H](Cc1ccc(-c2ccccc2)cc1)C(=O)O; X1 = O=C([C@H](Cc1ccn[nH]1)N[*:1])[*:2]; 1Nal = N[C@@H](Cc1cccc2ccccc12)C(=O)O; NMeY = CN[C@@H](Cc1ccc(O)cc1)C(=O)O; NMeF = CN[C@@H](Cc1ccccc1)C(=O)O; Cha = N[C@@H](CC1CCCCC1)C(=O)O; Phg = N[C@H](C(=O)O)c1ccccc1; Carboxymethyl = O=C(O)C*; NMeA = CN[C@@H](C)C(=O)O; Orn = NCCC[C@H](N)C(=O)O; Dab = NCC[C@H](N)C(=O)O; Sar = CNCC(=O)O

These compounds were tested against T1, human PD-1 (Jurkat-PD-1 cells) / PE-labeled human PD-L1-Ig (Homo sapiens, UniProt Q15116) (assay: Jurkat-PD-1 Cell Binding High-Content Screening Assay (CBA); Jurkat hPD1-PDL1 assay). Conditions: Jurkat cell line over-expressing human PD-1; PE-labeled PD-L1-Ig 20 nM final; compound incubated 2 hours at 37° C.; read-out: Jurkat HPD1-PDL1 IC50.
T1 construct: expressed in transfected cells; host or cells: Jurkat cell line over-expressing human PD-1
T1 sequence (Q15116 25-288): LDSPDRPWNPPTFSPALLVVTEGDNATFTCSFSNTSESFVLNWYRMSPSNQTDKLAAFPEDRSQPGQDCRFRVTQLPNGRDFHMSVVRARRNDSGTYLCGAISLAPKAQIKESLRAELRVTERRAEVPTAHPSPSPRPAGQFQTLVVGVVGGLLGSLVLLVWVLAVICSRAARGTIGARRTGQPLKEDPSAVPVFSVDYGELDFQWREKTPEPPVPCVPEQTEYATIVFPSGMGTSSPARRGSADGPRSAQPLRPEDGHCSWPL
In short: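 Jurkat cells overexpressing human PD-1 (8×10^3 per well, DMEM with 10% FCS) were preincubated with compound for 2 hours at 37° C. PE-labeled human PD-L1-Ig was then added at 20 nM final. Binding was quantified by high-content imaging.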

| Structure (SMILES) | IC50 |
| --- | --- |
| CC(C)C[C@@H]1NC(=O)[C@H](Cc2c[nH]c3ccccc23)NC(=O)[C@H](CC(=O)O)NC(=O)[C@H](Cc2ccc(O)cc2)NC(=O)[C@H](Cc2ccn[nH]2)NC(=O)CSC[C@@H](C(=O)N[C@@H](C)C(N)=O)NC(=O)[C@H](CO)NC(=O)[C@H](C(C)C)NC(=O)[C@H](CC(C)C)NC(=O)[C@H](CC(N)=O)NC(=O)CN(C)C(=O)[C@H](C)N(C)C(=O)[C@H](C(C)C)NC(=O)[C@H](Cc2ccc(-c3ccccc3)cc2)NC1=O [Example 1094] ({CH2CO}-[X1]YDWL[Bip]V[NMeA][Sar]NLVSCA-NH2; thioether N-14) | 280 nM |
| CC(C)C[C@@H]1NC(=O)[C@H](CCCNC(=N)N)NC(=O)[C@H](Cc2ccccc2)N(C)C(=O)[C@H](CCCNC(=N)N)NC(=O)[C@H](CCCNC(=N)N)NC(=O)[C@H](Cc2ccc(-c3ccccc3)cc2)NC(=O)[C@H](C(C)C)NC(=O)[C@H](Cc2c[nH]c3ccccc23)NC(=O)[C@H](CC(=O)O)NC(=O)[C@H](Cc2ccc(O)cc2)NC(=O)[C@H](Cc2cnc[nH]2)NC(=O)CSC[C@@H](C(=O)NCC(N)=O)NC(=O)[C@H](CO)NC(=O)[C@H](C(C)C)NC1=O [Example 1315] ({CH2CO}-HYDWV[Bip]RR[NMeF]RLVSCG-NH2; thioether N-14) | 530 nM |
| CC(C)[C@@H]1NC(=O)[C@H](Cc2c[nH]c3ccccc23)NC(=O)[C@H](CC(=O)O)NC(=O)[C@H](Cc2ccc(C(=O)O)cc2)NC(=O)[C@H](Cc2ccc(OCC(=O)O)cc2)NC(=O)CSC[C@@H](C(=O)N[C@@H](C)C(N)=O)NC(=O)[C@H]([C@@H](C)O)NC(=O)[C@H](C(C)C)NC(=O)[C@H](CC2CCCCC2)NC(=O)[C@H](CCN)NC(=O)[C@H](Cc2ccc(O)cc2)N(C)C(=O)[C@H](CCCN)NC(=O)[C@H](CCC(=O)O)NC(=O)[C@H](Cc2ccc(-c3ccccc3)cc2)NC1=O [Example 1433] ({CH2CO}-Y(Carboxymethyl)[Phe(4-COOH)]DWV[Bip]E[Orn][NMeY][Dab][Cha]VTCA-NH2; thioether N-14) | 260 nM |
| CC(C)C[C@@H]1NC(=O)[C@H](CCCNC(=N)N)NC(=O)[C@H](Cc2ccccc2)N(C)C(=O)[C@H](C)N(C)C(=O)[C@H](CCCNC(=N)N)NC(=O)[C@H](Cc2ccc(-c3ccccc3)cc2)NC(=O)[C@H](C(C)C)NC(=O)[C@H](Cc2c[nH]c3ccccc23)NC(=O)[C@H](CC(=O)O)NC(=O)[C@H](Cc2ccc(O)cc2)NC(=O)[C@H](CCC(N)=O)NC(=O)CSC[C@@H](C(=O)NCC(N)=O)NC(=O)[C@H](CO)NC(=O)[C@H](C(C)C)NC1=O [Example 1057] ({CH2CO}-QYDWV[Bip]R[NMeA][NMeF]RLVSCG-NH2; thioether N-14) | 130 nM |
| CC(C)C[C@@H]1NC(=O)[C@H](CCCNC(=N)N)NC(=O)[C@H](Cc2ccccc2)N(C)C(=O)[C@H](C)N(C)C(=O)[C@H](CCCNC(=N)N)NC(=O)[C@H](Cc2ccc(-c3ccccc3)cc2)NC(=O)[C@H](C(C)C)NC(=O)[C@H](Cc2c[nH]c3ccccc23)NC(=O)[C@H](CC(=O)O)NC(=O)[C@H](Cc2ccc(O)cc2)NC(=O)[C@H](Cc2cnc[nH]2)NC(=O)CSC[C@@H](C(=O)NCC(N)=O)NC(=O)[C@H]([C@@H](C)O)NC(=O)[C@H](C(C)C)NC1=O [Example 1317] ({CH2CO}-HYDWV[Bip]R[NMeA][NMeF]RLVTCG-NH2; thioether N-14) | 60 nM |
| CC(C)C[C@@H]1NC(=O)[C@H](Cc2c[nH]c3ccccc23)NC(=O)[C@H](CC(=O)O)NC(=O)[C@H](Cc2ccc(O)cc2)NC(=O)[C@H](Cc2ccccc2)NC(=O)CSC[C@@H](C(=O)NCC(N)=O)NC(=O)[C@H](CO)NC(=O)[C@H](C(C)C)NC(=O)[C@H](CC(C)C)NC(=O)[C@H](CCN)NC(=O)[C@H]2CCCN2C(=O)[C@H](CCN)NC(=O)[C@H](C(C)C)NC(=O)[C@H](Cc2ccc(-c3ccccc3)cc2)NC1=O [Example 1417] ({CH2CO}-FYDWL[Bip]V[Dab][dP][Dab]LVSCG-NH2; thioether N-14) | 70 nM |
| CC(C)C[C@@H]1NC(=O)CSC[C@@H](C(=O)NCC(N)=O)NC(=O)[C@H]([C@@H](C)O)NC(=O)[C@H](C(C)C)NC(=O)[C@H](CC(C)C)NC(=O)[C@H](CCCNC(=N)N)NC(=O)[C@H](Cc2ccccc2)N(C)C(=O)[C@H](C)N(C)C(=O)[C@H](CCCNC(=N)N)NC(=O)[C@H](Cc2ccc(-c3ccccc3)cc2)NC(=O)[C@H](C(C)C)NC(=O)[C@H](Cc2c[nH]c3ccccc23)NC(=O)[C@H](CC(=O)O)NC(=O)[C@H](Cc2ccc(O)cc2)NC1=O [Example 1312] ({CH2CO}-LYDWV[Bip]R[NMeA][NMeF]RLVTCG-NH2; thioether N-14) | 760 nM |
| CC(C)C[C@@H]1NC(=O)[C@H](Cc2c[nH]c3ccccc23)NC(=O)[C@H](CC(=O)O)NC(=O)[C@H](Cc2ccc(OCC(=O)O)cc2)NC(=O)[C@H](Cc2ccc(OCC(=O)O)cc2)NC(=O)CSC[C@@H](C(=O)N[C@@H](C)C(N)=O)NC(=O)[C@H](CO)NC(=O)[C@H](C(C)C)NC(=O)[C@H](CC(C)C)NC(=O)[C@H](CC(N)=O)NC(=O)[C@H]2CCCN2C(=O)[C@H](C)N(C)C(=O)[C@H](C(C)C)NC(=O)[C@H](Cc2ccc(-c3ccccc3)cc2)NC1=O [Example 1432] ({CH2CO}-Y(Carboxymethyl)Y(Carboxymethyl)DWL[Bip]V[NMeA][dP]NLVSCA-NH2; thioether N-14) | 80 nM |
| CC(C)C[C@@H]1NC(=O)[C@H](CCCNC(=N)N)NC(=O)[C@H](Cc2ccccc2)N(C)C(=O)[C@H](C)N(C)C(=O)[C@H](CCCNC(=N)N)NC(=O)[C@H](Cc2ccc(-c3ccccc3)cc2)NC(=O)[C@H](c2ccccc2)NC(=O)[C@H](Cc2c[nH]c3ccccc23)NC(=O)[C@H](CC(=O)O)NC(=O)[C@H](Cc2ccc(O)cc2)NC(=O)[C@H](Cc2ccccc2)NC(=O)CSC[C@@H](C(=O)NCC(N)=O)NC(=O)[C@H](CO)NC(=O)[C@H](C(C)C)NC1=O [Example 1334] ({CH2CO}-FYDW[Phg][Bip]R[NMeA][NMeF]RLVSCG-NH2; thioether N-14) | 430 nM |
| CC(C)C[C@@H]1NC(=O)[C@H](CCCNC(=N)N)NC(=O)[C@H](Cc2ccccc2)N(C)C(=O)[C@H](C)N(C)C(=O)[C@H](CCCNC(=N)N)NC(=O)[C@H](Cc2ccc(-c3ccccc3)cc2)NC(=O)[C@H](C(C)C)NC(=O)[C@H](Cc2cccc3ccccc23)NC(=O)[C@H](CC(=O)O)NC(=O)[C@H](Cc2ccc(O)cc2)NC(=O)[C@H](Cc2ccccc2)NC(=O)CSC[C@@H](C(=O)NCC(N)=O)NC(=O)[C@H](CO)NC(=O)[C@H](C(C)C)NC1=O [Example 1240] ({CH2CO}-FYD[1Nal]V[Bip]R[NMeA][NMeF]RLVSCG-NH2; thioether N-14) | 170 nM |
| CC(C)C[C@@H]1NC(=O)[C@H](C(C)C)NC(=O)CN(C)C(=O)[C@H](C)N(C)C(=O)[C@H](C(C)C)NC(=O)[C@H](Cc2ccc(-c3ccccc3)cc2)NC(=O)[C@H](Cc2ccc(O)cc2)NC(=O)[C@H](Cc2c[nH]c3ccccc23)NC(=O)[C@H](CC(=O)O)NC(=O)[C@H](Cc2ccc(O)cc2)NC(=O)[C@H](Cc2ccccc2)NC(=O)CSC[C@@H](C(=O)NCC(N)=O)NC(=O)[C@H](CO)NC(=O)[C@H](C(C)C)NC1=O [Example 1235] ({CH2CO}-FYDWY[Bip]V[NMeA][Sar]VLVSCG-NH2; thioether N-14) | 110 nM |
